Assay results: US6420377B1, “Covalent conjugates of topoisomerase I and topoisomerase II inhibitors” (priority 1997, dated 2002)
Where two headings read alike, the source gives them in different places.

How the values were obtained:
[1] = test system: calf thymus DNA topoisomerase II; test: In vitro topoisomerase-DNA cleavage assay, topoisomerase II; assay type: biochemical; details: for cleavable complex formation with topoisomerase II: FIG. 1A; for topoisomerase II cleavable complex activity relative to unconjugated components: S-1 vs 3, 4a, S-2 vs 3, 4b
Excerpt: (§1) Calf thymus DNA topoisomerases were purchased from TopoGen Inc., Columbus, Ohio. Tritium-labeled thymidine (60-90 ci/mmol) for labeling cellular DNA to measure protein-DNA complexes and αP^32-labeled deoxycytidine triphosphate (>3000 ci/mmol) were obtained from ICN Biochemicals Inc., Irvine, Calif. The latter radiochemical was used with a T4-DNA polymerase polymerase-labeling system from BRL Inc., Gaithersburg, Md., to prepare P^32-plasmid DNA for in vitro cleavage assays. Tissue culture reagents were purchased from Sigma Chemical Co., St. Louis, Mo., and Gibco-BRL Inc. All other chemicals were reagent grade.
(§2) The detailed method used to measure stimulation of cleavable complexes in vitro is described in K. Bastow et al., Planta Med. 59:195 (1993).. Briefly, incubated cleavage reactions containing one nanogram of P^32 end-labeled linearized PBR322 DNA, one unit of enzyme and test compound were divided equally for analysis. One portion was prepared for gel electrophoresis with subsequent autoradiography and protein-DNA complexes in the remaining sample were analyzed using the potassium-SDS precipitation method and scintillation spectrometry.

KB cells [2] = test: Cellular protein-DNA complex formation (potassium-SDS precipitation); assay type: cell-based; details: one hour
Procedure: Stimulation of intracellular protein associated DNA breaks was measured using a standard assay method described in Y. Kashiwada et al., J. Pharm. Sci. 82:487 (1993). Briefly, KB cells were labeled overnight with tritiated thymidine (0.5 μCi/mL), chased for two hours and then treated in triplicate with test compounds at various concentrations. After one hour, samples were processed and protein-DNA complexes were measured as potassium-SDS precipitable radioactivity.

KB cells [3] = test: Gel lysis assay for genomic DNA breaks; assay type: cell-based; details: for reversal of genomic DNA fragmentation upon drug removal: additional hour in fresh media
Procedure: One million KB cells in 25cm^2 flasks were treated for three hours with test compound, the medium was discarded then cells were scraped into ice-cold PBS and harvested by centrifugation. Washed cell pellets were resuspended in eighty microliters of a 37° C. gel solution [1% (w/v) low-melting point agarose in PBS], and were cast in a mold and refrigerated to form 6×7×2 mm agarose plugs. Plugs of cells were incubated in lysis-digestion buffer (0.4M EDTA, 0.01 Tris (HCl, pH 8.0), 1% (w/v) N-lauryl-sarcosine and 100 μg/mL proteinase K) at 37° overnight or 50° for one hour. The treated plugs were equilibrated in TBE buffer and placed against a gel comb in a horizontal gel casting tray (BRL Inc., H4 system format). A 55° gel solution containing 0.8% (w/v) agarose in TBE was poured and allowed to gel. Electrophoresis was at 3.5 v/cm (measured between electrodes) for 16 hours at 4° without buffer re-circulation. The gel was stained with 1 μg/mL ethidium bromide in water, treated overnight at 25° C. with RN'ase (1 μg/mL), and then photographed under UV illumination. For the reversibility studies, treated cells were washed with PBS and incubated with fresh media for an additional hour before harvesting for plug preparation and gel analysis.

[4] = test system: KB oral carcinoma cell line; details: KB growth inhibition; cited from earlier work
KB-7d [5] = details: relative to KB; cited from earlier work
[6] = test system: KB oral carcinoma cell line; test: Cell growth inhibition, KB cells; assay type: cell-based; details: for IC50: Homo sapiens, KB
Procedure: (§3) The KB oral carcinoma cell line was provided by M. Fisher (Pharmacology, UNC- Chapel Hill). The isolation and properties of the etoposide-resistant sub-clone, KB-7d, and the camptothecin-resistant line, KB-CPT100, were reported in P. Ferguson et al., Cancer Res. 48:5956 (1988) and D. Beidler et al., Cancer Res. 56:345 (1996), and are discussed briefly hereinafter. The vincristine-resistant sub-clone, KB-VIN20c was isolated by selection in 20 nM vincristine and over-expresses the P-glycoprotein multidrug-resistant drug-efflux protein (unpublished results).
(§4) All cell types were propagated in RPMI-1640 medium supplemented with 5% (v/v) fetal calf serum and 100 μg/mL kanamycin at 37° in a humidified atmosphere of 5% CO2 and 95% air. Over the course of the experiments, doubling times of cells were 24±4 hours.
(§5) Fifty thousand cells were plated in 25 cm^2 flasks (Falcon, N.J., USA) and incubated overnight. The medium was supplemented with test compounds at various concentrations and cultures were incubated for 48-51 hours (for about two cell doublings) before cells were trypsinized and then counted using a hemacytometer. The number of treated cells which excluded 0.5% (v/v) trypan blue were expressed as a percentage of the growth measured in control cultures. Compounds were evaluated in at least two independent experiments and the combined results were analyzed as scatter plots with dose-responses being computer fitted by linear regression at the 95% confidence level using Graphpad Software., San Diego, Calif. The IC50 concentrations which inhibited cell growth by fifty percent relative to control were interpolated from graphed results.

KB-7d [7] = test: Cell growth inhibition, etoposide-resistant KB-7d cells; assay type: cell-based; details: for IC50: KB7D, read-out: Cell Growth Inhibition IC50
Procedure: as §3, §4, §5

KB-CPT100 [8] = test: Cell growth inhibition, camptothecin-resistant KB-CPT100 cells; assay type: cell-based; details: for cross-resistance of KB-CPT100 cells, growth inhibition: relative to KB
Procedure: as §3, §4, §5

KB-VIN20c [9] = test: Cell growth inhibition, vincristine-resistant KB-VIN20c cells; assay type: cell-based; details: for IC50: read-out: Cell Growth Inhibition IC50
Procedure: as §3, §4, §5

KB = test: Cytotoxicity measured as reduced plating efficiency, KB cells; assay type: cell-based; details: Homo sapiens, 3 h, read-out: Cytotoxicity Measured as Reduced Plating Efficiency IC50
Procedure: (§6) LC50 concentrations were determined by treating cells for three hours with different concentrations of compounds then replating cells to measure colony formation and plating efficiency as the percent of total cells forming colonies. Compounds were evaluated in three independent experiments. The plating efficiences of untreated cells varied between experiments with values ranging from 14-31% for KB, 31-56% for KB-7d, 16-38% for KB-VIN20c and 21-36% for KB-CPT100. A concentration of compound that reduced plating efficiency by fifty percent relative to control, the LC50, was determined graphically as stated in the preceding section.

KB-7d [10] = test: Cytotoxicity measured as reduced plating efficiency, KB-7d cells; assay type: cell-based; details: for IC50: KB7D, 3 h, read-out: Cytotoxicity Measured as Reduced Plating Efficiency IC50
Procedure: as §6

KB-VIN20c [11] = test: Cytotoxicity measured as reduced plating efficiency, KB-VIN20c cells; assay type: cell-based; details: 3 h, read-out: Cytotoxicity Measured as Reduced Plating Efficiency IC50
Procedure: as §6

[12] = molecular target: T1, calf thymus DNA topoisomerase I (Bos taurus, UniProt F1MN93); test: In vitro topoisomerase-DNA cleavage assay, topoisomerase I; assay type: biochemical; details: for stimulation of topoisomerase I cleavage activity, dose behaviour: higher test concentrations; for cleavable complex formation with topoisomerase I / topoisomerase I cleavable complex activity relative to unconjugated components: ten micromolar; for cleavable complex formation with topoisomerase I: FIG. 1A; for topoisomerase I cleavable complex activity relative to unconjugated components: S-1 vs 3, 4a, S-2 vs 3, 4b
T1 construct: Calf thymus DNA topoisomerases were purchased from TopoGen Inc., Columbus, Ohio; purchased TopoGen Inc., Columbus, Ohio; host or cells: calf thymus (tissue-derived enzyme)
T1 sequence (F1MN93 1-767): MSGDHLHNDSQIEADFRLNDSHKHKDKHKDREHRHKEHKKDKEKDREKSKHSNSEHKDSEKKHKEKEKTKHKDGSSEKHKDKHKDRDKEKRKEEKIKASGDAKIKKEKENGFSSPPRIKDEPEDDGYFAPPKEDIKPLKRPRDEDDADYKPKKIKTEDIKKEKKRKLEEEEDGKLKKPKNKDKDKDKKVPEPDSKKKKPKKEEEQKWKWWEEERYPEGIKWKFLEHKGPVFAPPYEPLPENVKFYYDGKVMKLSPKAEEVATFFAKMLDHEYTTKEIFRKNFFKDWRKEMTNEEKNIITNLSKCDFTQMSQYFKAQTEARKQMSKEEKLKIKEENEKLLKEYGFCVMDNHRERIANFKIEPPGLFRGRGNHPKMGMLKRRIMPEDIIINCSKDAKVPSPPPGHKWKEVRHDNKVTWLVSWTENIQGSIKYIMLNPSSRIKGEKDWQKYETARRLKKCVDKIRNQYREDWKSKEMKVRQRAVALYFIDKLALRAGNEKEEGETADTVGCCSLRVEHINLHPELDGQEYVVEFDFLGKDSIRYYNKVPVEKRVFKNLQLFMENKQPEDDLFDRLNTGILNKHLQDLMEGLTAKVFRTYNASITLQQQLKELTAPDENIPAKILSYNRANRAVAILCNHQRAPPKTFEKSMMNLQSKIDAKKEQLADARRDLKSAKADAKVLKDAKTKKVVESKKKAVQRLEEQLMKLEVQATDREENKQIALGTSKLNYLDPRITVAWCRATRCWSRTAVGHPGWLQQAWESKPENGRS
Excerpt: as §1, §2

KB-CPT100 [13] = details: relative to KB; cited from earlier work
KB-CPT100 [14] = test: Cytotoxicity measured as reduced plating efficiency, KB-CPT100 cells; assay type: cell-based; details: KBCPT100, 3 h, read-out: Cytotoxicity Measured as Reduced Plating Efficiency IC50
Procedure: as §6

[15] = fifty-times the IC50 for KB growth inhibition (etoposide eight, 4b four, 3 0.4, S-2 0.8 micromolar), three hours
[16] = twenty-fold higher concentration (3 at sixteen micromolar), three hours
[17] = twenty-fold higher concentration

Row | Structure (SMILES) | stimulation of in vitro topoisomerase II cleavable-complexes, dose behaviour [1] | stimulation of topoisomerase II-induced DNA cleavage over enzyme control ([1]; fifty micromolar) | stimulation of topoisomerase II-induced DNA cleavage over enzyme control ([1]; one micromolar) | stimulation of topoisomerase II-induced DNA cleavage over enzyme control ([1]; ten micromolar) [fold] | genomic DNA fragmentation (KB cells [3]; [15]) | IC50 [4] [nM] | cross-resistance of KB-CPT100 cells, growth inhibition (KB-CPT100 [8]) | IC50 (KB) [nM] | IC50 (KB-7d [10]) [nM] | IC50 (KB-VIN20c [11]) [nM] | stimulation of topoisomerase I cleavage activity, dose behaviour [12] | genomic DNA fragmentation (KB cells [3]; [16]) | reversal of genomic DNA fragmentation upon drug removal (KB cells [3]; [17]) | cleavable complex formation with topoisomerase II ([1]; ten micromolar) | topoisomerase II cleavable complex activity relative to unconjugated components ([1]; ten micromolar) | cleavable complex formation with topoisomerase I [12] | topoisomerase I cleavable complex activity relative to unconjugated components [12] | other results
1 | COc1cc([C@@H]2c3cc4c(cc3[C@@H](O[C@@H]3O[C@@H]5CO[C@@H](C)O[C@H]5[C@H](O)[C@H]3O)[C@H]3COC(=O)[C@H]23)OCO4)cc(OC)c1O [Compound C-1, etoposide, reference compound] | act saturably | 12 fold | 1.5 fold | 3 | High molecular weight DNA fragments were detected | 160 ± 40 |  |  |  |  |  |  |  |  |  |  |  | intracellular protein-DNA complex formation (KB cells [2]; one micromolar and lower): no measurable response; reversal of genomic DNA fragmentation upon drug removal (KB cells [3]; fifty-times the IC50): integrity of the DNA was restored; resistance of KB-7d cells (KB-7d [5]): 145 fold
2 | CC[C@@]1(O)C(=O)OCc2c1cc1n(c2=O)Cc2c-1nc1ccccc1c2C=O [Compound 3, 7-formyl camptothecin, reference compound] |  |  |  |  | inactive |  | about 58 fold | 10000 | > 16000 | 12000 | not inhibited at higher test concentrations | marginal fragmentation | not affected by reversing treatment |  |  |  |  | IC50 ([6]; read-out: estimated IC50, KB cell growth): 7 nM; IC50 ([6]; 48-51 hours, two numbers in brackets after the value, read-out: Cell Growth Inhibition IC50): 7 nM; IC50 (KB-7d [7]; KB-7d, 48-51 hours, two numbers in brackets after the value): 9 nM; cross-resistance of KB-7d cells, growth inhibition (KB-7d [7]; relative to KB): equally active; IC50 (KB-CPT100 [8]; KBCPT100, KB-CPT100, 48-51 hours, two numbers in brackets after the value, read-out: Cell Growth Inhibition IC50): 575 nM; IC50 (KB-VIN20c [9]; XB-VIN20c (so in the source), 48-51 hours, two numbers in brackets after the value): 18 nM; cross-resistance of KB-VIN20c cells, growth inhibition (KB-VIN20c [9]; relative to KB): no more than 2 fold
3 | CC[C@@]1(O)C(=O)OCc2c1cc1n(c2=O)Cc2cc3ccccc3nc2-1 [Compound C-2, camptothecin] |  |  |  |  |  | 9.8 ± 3.2 |  |  |  |  |  |  |  |  |  |  |  | resistance of KB-CPT100 cells to growth-inhibitory effect (KB-CPT100 [13]): 32 fold
4 | CC[C@@]1(O)C(=O)OCc2c1cc1n(c2=O)Cc2c-1nc1ccccc1c2/C=N\c1ccc(N[C@@H]2c3cc4c(cc3[C@@H](c3cc(OC)c(O)c(OC)c3)[C@H]3C(=O)OC[C@@H]32)OCO4)cc1 [Compound S-1] |  |  |  |  |  |  |  |  |  |  |  |  |  | induced cleavable complexes | reduced about two-fold | induced cleavable complexes | reduced about two-fold | melting point: > 300 °C (dec.)
5 | CC[C@@]1(O)C(=O)OCc2c1cc1n(c2=O)Cc2c-1nc1ccccc1c2/C=N/c1ccccc1N[C@@H]1c2cc3c(cc2[C@@H](c2cc(OC)c(O)c(OC)c2)[C@H]2C(=O)OC[C@@H]21)OCO3 [Compound S-2] | dose-inhibitory | only marginal stimulation | only marginal stimulation | ~4 |  |  | only six-fold cross-resistant | 4000 | > 15000 | 4600 | not inhibited at higher test concentrations | high molecular mass genomic fragments were detected | only partially restored | induced cleavable complexes | reduced about two-fold | induced cleavable complexes | reduced about two-fold | activity at inhibiting KB cell growth relative to C-1 [6]: about ten-fold more active; IC50 ([6]; read-out: Cell Growth Inhibition IC50): 14 nM; IC50 (KB-7d [7]): 15 nM; IC50 (KB-CPT100 [8]; KBCPT100, read-out: Cell Growth Inhibition IC50): 85 nM; IC50 (KB-VIN20c [9]): 27 nM; cross-resistance of KB-7d cells to cytotoxic action (KB-7d [10]): appeared cross-resistant; IC50 (KB-CPT100 [14]): 2000 nM; intracellular protein-DNA complex formation, dose behaviour (KB cells [2]; high concentration (7.5-60 micromolar)): not dose-inhibitory at high concentration; genomic DNA fragmentation (KB cells [3]): marginal DNA fragmentation
